These molecules were tested against S. pneumoniae Topoisomerase IV ATPase (ParE) (Streptococcus pneumoniae serotype 4, UniProt Q59961) (assay: S. pneumoniae Topoisomerase IV ATPase inhibition). Details: values marked * are an average of two or more data points, 13 µM.
Sequence of S. pneumoniae Topoisomerase IV ATPase (ParE) (Q59961 whole entry): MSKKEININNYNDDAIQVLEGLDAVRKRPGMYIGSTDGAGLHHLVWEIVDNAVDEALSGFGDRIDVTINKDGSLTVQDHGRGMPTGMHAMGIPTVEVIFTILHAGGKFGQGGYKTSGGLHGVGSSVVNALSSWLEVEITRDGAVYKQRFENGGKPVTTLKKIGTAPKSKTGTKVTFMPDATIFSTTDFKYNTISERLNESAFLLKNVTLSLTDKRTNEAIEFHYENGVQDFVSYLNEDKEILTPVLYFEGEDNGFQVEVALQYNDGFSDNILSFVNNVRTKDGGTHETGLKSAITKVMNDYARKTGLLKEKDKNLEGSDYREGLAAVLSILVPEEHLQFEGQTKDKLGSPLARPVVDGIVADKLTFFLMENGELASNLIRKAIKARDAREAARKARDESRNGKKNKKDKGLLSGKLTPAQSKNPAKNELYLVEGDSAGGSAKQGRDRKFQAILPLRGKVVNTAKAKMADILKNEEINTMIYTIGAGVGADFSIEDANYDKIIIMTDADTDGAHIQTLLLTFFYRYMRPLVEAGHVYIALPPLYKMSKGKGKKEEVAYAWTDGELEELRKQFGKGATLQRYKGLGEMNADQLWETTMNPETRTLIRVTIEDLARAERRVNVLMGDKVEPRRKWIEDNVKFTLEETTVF
Type: biochemical
Procedure, shortened: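 Phosphate release by ParE ATPase from S. pneumoniae read colorimetrically (malachite green, 650 nm), enzyme 1.25 nM, ATP 160 μM, salmon sperm DNA present, buffer 20 mM Tris pH 8.0 with 8 mM MgCl2. IC50 over 10 compound concentrations, EDTA (20 μM) and DMSO controls defining inhibition range.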
`O=C(O)/C=C/c1cccc(-c2cnc(Nc3ccc(F)c(Cl)c3)nc2N[C@H]2CCOC2)c1` [Example 958] was tested, and the “% Inh (13 μM) of S. pneumoniae Topoisomerase IV ATPase” value was 93%.

Same assay, conditions: values marked * are an average of two or more data points, read-out: % Inh (13 μM) of S. pneumoniae Topoisomerase IV ATPase
In the case of `O=C(O)[C@@H]1C[C@H]1c1cncc(-c2cnc(Nc3ccc(F)c(Cl)c3)nc2-n2ccc(C(F)(F)F)n2)c1` [Example 573, (1,2-trans)-2-(5-(2-(3-chloro-4-fluorophenvlamino)-4-(3-(trifluoromethyl)-1H-pyrazol-1-yl)pyrimidin-5-yl)pyridin-3-yl)cyclopropanecarboxylic acid], the inhibition at 13 µM is reported as 100%.
Work on `CCN(CC)S(=O)(=O)c1cncc(-c2cnc(Nc3ccc(F)c(Cl)c3)nc2-n2ccc(C(F)(F)F)n2)c1` [Example 1033, 5-(2-(3-Chloro-4-fluorophenylamino)-4-(3-(trifluoromethyl)-1H-pyrazol-1-yl)pyrimidin-5-yl)-N,N-diethylpyridine-3-sulfonamide] yielded an inhibition at 13 µM of 20%.
With `O=C(O)c1cncc(-c2cnc(Nc3ccc(F)c(Cl)c3)nc2-n2cccc2)c1` [Example 311, 5-{2-[(3-chloro-4-fluorophenyl)amino]-4-(1H-pyrrol-1-yl)pyrimidin-5-yl}pyridine-3-carboxylic acid] the inhibition at 13 µM was 81.8%.
`COc1cc(Nc2ncc(-c3cnc(OC)nc3)c(N3CC(C)OC(C)C3)n2)cc(C(F)(F)F)c1` (stereo not drawn) [Example 349, 4-(2,6-dimethylmorpholino)-2′-methoxy-N-(3-methoxy-5-(trifluoromethyl)phenyl)-5,5′-bipyrimidin-2-amine] was tested, and the inhibition at 13 µM was 83.6%.
`COCCCNc1nc(Nc2ccc(F)c(Cl)c2)ncc1-c1cnc(OC)nc1` [Example 78, N^2-(3-chloro-4-fluorophenyl)-2′-methoxy-N^4-(3-methoxypropyl)-5,5′-bipyrimidine-2,4-diamine] showed an inhibition at 13 µM of 80.9%.
`Cc1cc(C)cc(Nc2ncc(-c3cncc(C(=O)O)c3)c(N3CCOCC3)n2)c1` [Example 389, 5-[2-(3,5-Dimethyl-phenylamino)-4-morpholin-4-yl-pyrimidin-5-yl]-nicotinic acid] was tested, and the inhibition at 13 µM was 85%.
In the case of `Cc1nccn1-c1nc(Nc2ccc(F)c(Cl)c2)ncc1-c1cncc(C(=O)O)c1` [Example 310, 5-{2-[(3-chloro-4-fluorophenyl)amino]-4-(2-methyl-1H-imidazol-1-yl)pyrimidin-5-yl}pyridine-3-carboxylic acid], the inhibition at 13 µM is reported as 80%.
`COCCCNc1nc(Nc2ccc(F)c(Cl)c2)ncc1-c1ccc2sc(C(=O)OC)cc2c1` [Example 180, methyl 5-(2-(3-chloro-4-fluorophenylamino)-4-(3-methoxypropylamino)-pyrimidin-5-yl)benzo[b]thiopene-2-carboxylate] gave an inhibition at 13 µM of -56.9%.
With `Cc1ccc(F)c(Nc2ncc(-c3cncc(C(=O)O)c3)c(-n3ccc(C(F)(F)F)n3)n2)c1` [Example 772, 5-{2-[(2-fluoro-5-methylphenyl)-amino]-4-[3-(trifluoromethyl)-1H-pyrazol-1-yl]pyrimidin-5-yl}pyridine-3-carboxylic acid] the inhibition at 13 µM was 81%.
`Cc1cc(C(F)(F)F)nn1-c1nc(Nc2ccc(F)c(Cl)c2)ncc1-c1cncc(C(=O)NCCS(C)(=O)=O)c1` [Example 926, 5-(2-(3-chloro-4-fluorophenylamino)-4-(5-methyl-3-(trifluoromethyl)-1H-pyrazol-1-yl)pyrimidin-5-yl)-N-(2-(methylsulfonyl)ethyl)nicotinamide] was tested, and the inhibition at 13 µM was 100%.
`Cc1cc(C(F)(F)F)nn1-c1nc(Nc2ccc(F)c(Cl)c2)ncc1-c1cnc(OC2CCN(C)C2)c(C(=O)O)c1` (stereo not drawn) [Example 787, 5-{2-[(3-chloro-4-fluorophenyl)amino]-4-[5-methyl-3-(trifluoromethyl)-1H-pyrazol-1-yl]pyrimidin-5-yl}-2-[(1-methylpyrrolidin-3-yl)oxy]pyridine-3-carboxylic acid] showed an inhibition at 13 µM of 97%.
For `CCOC(=O)c1cc2cc(-c3cnc(Nc4ccc(F)c(Cl)c4)nc3NCCCOC)ccc2[nH]1` [Example 1052, Ethyl 5-(2-(3-chloro-4-fluorophenylamino)-4-(3-methoxyproylamino)pyrimidin-5-yl)-1H-indole-2-carboxylate], the inhibition at 13 µM was 0%.
`COc1cc(Cl)cc(Nc2ncc(-c3cncc(C(=O)O)c3)c(-n3nc(C(F)(F)F)cc3C)n2)c1` [Example 775, 5-{2-[(3-chloro-5-methoxyphenyl)-amino]-4-[5-methyl-3-(trifluoromethyl)-1H-pyrazol-1-yl]pyrimidin-5-yl}pyridine-3-carboxylic acid] was tested, and the inhibition at 13 µM was 100%.
Work on `COc1ncc(-c2cnc(Nc3cc(C)cc(C)c3)nc2-n2nc(C(F)(F)F)cc2C)cc1C(=O)NS(=O)(=O)C(C)C` [Example 827, 5-{2-[(3,5-dimethylphenyl)amino]-4-[5-methyl-3-(trifluoromethyl)-1H-pyrazol-1-yl]pyrimidin-5-yl}-2-methoxy-N-(propan-2-ylsulfonyl)pyridine-3-carboxamide] yielded an inhibition at 13 µM of 100%.
`CCOC(=O)/C=C/c1cccc(-c2cnc(Nc3ccc(F)c(Cl)c3)nc2NCCCNC(=O)c2cnc(C)cn2)c1` [Example 165] gave an inhibition at 13 µM of 56.9%.
For `CS(=O)(=O)CCn1cc(-c2cnc(Nc3ccc(F)c(Cl)c3)nc2-n2ccc(C(F)(F)F)n2)cc(C(=O)O)c1=O` [Example 1091, 5-(2-(3-Chloro-4-fluorophenylamino)-4-(3-(trifluoromethyl)-1H-pyrazol-1-yl)pyrimidin-5-yl)-1-(2-(methylsulfonyl)ethyl)-2-oxo-1,2-dihydropyridine-3-carboxylic acid], the inhibition at 13 µM was 100%.
For `CONC(=O)c1cc(-c2cnc(Nc3cc(OC)cc(OC)c3)nc2-n2ccc(C(F)(F)F)n2)cnc1OC` [Example 811, 5-{2-[(3,5-dimethoxyphenyl)amino]-4-[3-(trifluoromethyl)-1H-pyrazol-1-yl]pyrimidin-5-yl}-N,2-dimethoxypyridine-3-carboxamide], the inhibition at 13 µM was 100%.
`O=C(O)c1cc(-c2cnc(Nc3ccc(F)c(Cl)c3)nc2-n2ccc(C(F)(F)F)n2)cnc1OCCc1ccncc1` [Example 872, 5-(2-(3-chloro-4-fluorophenylamino)-4-(3-(trifluoromethyl)-1H-pyrazol-1-yl)pyrimidin-5-yl)-2-(2-(pyridin-4-yl)ethoxy)nicotinic acid] gave an inhibition at 13 µM of 100%.
Work on `CN(C)CCCNc1nc(Nc2ccc(F)c(Cl)c2)ncc1-c1cncc(C#N)c1` [Example 15, 5-{2-(3-chloro-4-fluorophenylamino)-4-[3-(dimethylamino)propylamino]pyrimidin-5-yl}nicotinitrile] yielded an inhibition at 13 µM of 100%.
For `Cc1cc(C)cc(Nc2ncc(-c3cncc(C(=O)O)c3)c(-n3ccc(C(F)(F)F)n3)n2)c1` [Example 637, 5-{2-[(3,5-dimethylphenyl)amino]-4-[3-(trifluoromethyl)-1H-pyrazol-1-yl]pyrimidin-5-yl}pyridine-3-carboxylic acid], the inhibition at 13 µM was 100%.
In the case of `CCCS(=O)(=O)NC(=O)c1cc(-c2cnc(Nc3cc(C)cc(C)c3)nc2-n2nc(C(F)(F)F)cc2C)cnc1OC` [Example 825, 5-{2-[(3,5-dimethylphenyl)amino]-4-[5-methyl-3-(trifluoromethyl)-1H-pyrazol-1-yl]pyrimidin-5-yl}-2-methoxy-N-(propylsulfonyl)pyridine-3-carboxamide], the inhibition at 13 µM is reported as 100%.
Molecule `COc1cc(Cl)cc(Nc2ncc(-c3cnc(OC)c(C(=O)O)c3)c(-n3ccc(C(F)(F)F)n3)n2)c1` [Example 758, 5-{2-[(3-chloro-5-methoxyphenyl)amino]-4-[3-(trifluoromethyl)-1H-pyrazol-1-yl]pyrimidin-5-yl}-2-methoxypyridine-3-carboxylic acid] has an inhibition at 13 µM of 98%.
Work on `COCCCNc1nc(Nc2ccc(F)c(Cl)c2)ncc1-c1cncc(C(=O)CC(=O)OC)c1` [Example 1040, Methyl 3-(5-(2-(3-chloro-4-fluorophenylamino)-4-(3-methoxypropylamino)pyrimidin-5-yl)pyridin-3-yl)-3-oxopropanoate] yielded an inhibition at 13 µM of 86%.
In the case of `O=C(O)c1cncc(-c2cnc(Nc3ccc(F)c(Cl)c3)nc2NCCN2CCS(=O)(=O)CC2)c1` [Example 231, 5-{2-(3-Chloro-4-fluoro-phenylamino)-4-[2-(1,1-dioxo-1λ^6-thiomorpholin-4-yl)-ethylamino]-pyrimidin-5-yl}-nicotinic acid], the inhibition at 13 µM is reported as 81.5%.
In the case of `COCC(COC)Oc1ncc(-c2cnc(Nc3ccc(F)c(Cl)c3)nc2-n2nc(C(F)(F)F)cc2C)cc1C(=O)O` [Example 870, 5-(2-(3-chloro-4-fluorophenylamino)-4-(5-methyl-3-(trifluoromethyl)-1H-pyrazol-1-yl)pyrimidin-5-yl)-2-(1,3-dimethoxypropan-2-yloxy)nicotinic acid], the inhibition at 13 µM is reported as 100%.
`O=C(O)[C@@H]1C[C@H]1c1cccc(-c2cnc(Nc3ccc(F)c(Cl)c3)nc2-n2ccc(C(F)(F)F)n2)c1` (racemic) [Example 574, (1,2-trans)-2-(3-(2-(3-chloro-4-fluorophenylamino)-4-(3-(trifluoromethyl)-1H-pyrazol-1-yl)pyrimidin-5-yl)phenyl)cyclopropanecarboxylic acid] was tested, and the inhibition at 13 µM was 96%.
For `COc1cc(Nc2ncc(-c3ccc(C(=O)O)s3)c(NCCCN(C)C)n2)c(OC)cc1Cl` [Example 347, 5-(2-(4-chloro-2,5-dimethoxyphenyl-amino)-4-(3-(dimethylamino)propylamino)pyrimidin-5-yl)thiophene-2-carboxylic acid], the inhibition at 13 µM was 42.2%.
`O=C(O)c1ccc(-c2cnc(Nc3ccc(F)c(Cl)c3)nc2-n2ccnc2)s1` [Example 1111, 5-[2-[(3-chloro-4-fluorophenyl)-amino]-4-imidazol-1-ylpyrimidin-5-yl]thiophene-2-carboxylic acid] gave an inhibition at 13 µM of 88%.
`O=C(O)/C=C/c1cccc(-c2cnc(Nc3ccc(F)c(Cl)c3)nc2-n2nc3cccnc3n2)c1` [Example 334, (2E)-3-(3-{2-[(3-chloro-4-fluorophenyl)amino]-4-(2H-[1,2,3]triazolo[4,5-b]pyridin-2-yl)pyrimidin-5-yl}phenyl)prop-2-enoic acid] gave an inhibition at 13 µM of 104%.

From patent US20100137313A1 (ASTRAZENECA AB, priority 2008, published 2010)
